In patent US20230416258A1, “BENZ[…], AND PREPARATION METHOD THEREFOR AND USE THEREOF” (CHINA PHARMACEUTICAL UNIVERSITY, priority 2020, published 2023):
Where two headings read alike, the source gives them in different places.

Legend:
KM mice = assay: Test for drug-induced disappearance of righting reflex in mice; assay type: in vivo; conditions: single rapid bolus via tail vein
Outline: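 Latency to, and duration of, righting reflex loss were recorded after one fast tail-vein bolus. Animals: randomized female KM mice weighing 18–25 g.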

SD rats [1] = assay: Test for drug-induced disappearance of righting reflex in rats; assay type: in vivo; conditions: single rapid bolus via tail vein
Source text: In anesthetic drug experiments, latency generally refers to the time from the start of administration to the loss of consciousness of the subject. The shorter latency is preferred, indicating a rapid onset of action after administration. The duration of anesthesia generally refers to the duration of time from the loss of consciousness to the restoration of consciousness of the subject. The duration of the drug will vary from animal model to animal species. Too long anesthesia may produce adverse cardiovascular and respiratory responses, such as adverse neurological effects to the subject, including sleepiness and dizziness; meanwhile, too short duration of anesthesia may affect the anesthesia effect, causing problems such as increase of anesthesia dosage during the operation.
SD rats (male, 200-280 g) were randomly grouped and subjected to a single administration by rapid bolus via the tail vein. The latency and duration of righting reflex in the rats were recorded.

SD rats [2] = assay: Induction of anesthesia in rats by continuous infusion of drug for 20 min; assay type: in vivo; conditions: initial dose 20 mg/kg bolus, maintenance dose 0.2 (mg/kg)/min for 20 min, after infusion completed
Procedure: SD rats (male, 200-280 g) were randomly grouped and subjected to administration of an initial dose by rapid bolus via the tail vein, followed by a continuous infusion with a maintenance dose for 20 min.
After the infusion was completed, the duration of the righting reflex and the time from wake-up to recovery in rats were recorded.

[3] = system: GABA-activated Cl− current (GABAA receptor) in HEK 293T cells; assay: Effect of drugs on GABA-activated current in cells by cell patch clamp; assay type: cell-based; conditions: for Enhancement percentage Emax for 2 μM GABA current (within 3-30 μM): corresponding concentration 20 μM
Procedure: Test compounds were dissolved at various concentrations in an extracellular buffer (140 mM NaCl, 4.7 mM KCl, 10 mM HEPES, 2 mM CaCl2), 10 mM glucose, 1 mM MgCl2, pH 7.4). HEK 293T cells were seeded on glass coverslips and cultured in DMEM media at 37° C. with 5% CO2 for 24 h. GABA Cl^− current was subjected to whole cell recording using an HEKA EPC 10USB patch clamp amplifier. 2 μM GABA was used for exciting Cl^− current, with the membrane potential clamped at −60 mV. The cells were treated with the test compound and 2 μM GABA simultaneously, and the induction effect on and Emax of Cl^− current in the same cell were recorded.
Maximum enhancement percentage Emax for 2 μM GABA current and corresponding concentration (μM): 100% for normal humans. The greater the percentage, the lower the corresponding concentration, and the greater the depth of anesthesia.

hCMEC/D3 cells = assay: Rate of drug passing through in vitro blood-brain barrier (Transwell); assay type: in vitro ADME; conditions: hCMEC/D3 monolayer, compound 0.1 mg/mL
Procedure: A Transwell device (pore size: 5.0 μm) was placed in a 24-well cell culture well; then hCMEC/D3 cells at 1×10^5 cells/mL were transferred to the upper microwells of Transwell at 150 μL/well, and cell culture medium was added to the lower microwells. After the bottom was covered by a single layer of the cells, the medium in the wells was replaced with EBM-2 complete medium containing 1% FBS, and the cells were cultured in a CO2 incubator for 10 days until a fully dense single layer of the cells was formed. When a fully dense single layer of the cells was formed, the compound at 0.1 mg/mL was added to the lower medium, and after 5 min, the concentration of the compound in the upper medium was measured to calculate the permeability:
Pcompound%=Cupper compound/Clower compound×100%

[4] = In vitro plasma half-life of drug; assay type: in vitro ADME, SD rats; conditions: plasma (heparin sodium); SD rat plasma, 37° C.
Procedure: Preparation of plasma: after the SD rats were fasted and kept with water for 12 h, blood was collected through orbital venous plexus. The freshly collected blood was added into a centrifuge tube containing heparin sodium and centrifuged at 5000 rpm for 10 min at 4° C. The supernatant was slowly pipetted and subpackaged. Finally, the collected SD rat plasma was sealed, marked, and stored at −20° C. for later use.
Preparation of target compound sample: the target compound was precisely weighed by an analytical balance and prepared into a stock solution at a concentration of 2 mg/mL (solvent: Vacetone:VTween 80:Vnormal saline=1:1:3) for later use.
Determination of in vitro half-life of target compound sample: 20 μL of test compound stock solution and 80 μL of rat plasma were mixed uniformly. Nine parallel ep tubes were taken, marked as corresponding test tubes of 0 min, 1 min, 2 min, 3 min, 5 min, 10 min, 15 min, 20 min, and 30 min, respectively, and placed in a water bath at 37° C. for incubation for 0 min, 1 min, 2 min, 3 min, 5 min, 10 min, 15 min, 20 min, and 30 min, respectively. 50 μL of mixed solution were taken from the corresponding ep tube at each time point, and […] of acetonitrile was added for precipitating protein. The mixture was vortexed for 10 min using a mixer and centrifuged at 12000 rpm for 15 min. Then, the supernatant was centrifuged at 12000 rpm for 10 min. The optimal detection method for the target compound in the MRM mode was determined using Intellistat software in UPLC-MS/MS, the peak area of the corresponding mass spectrum was integrated, and the plasma half-life of the compound was calculated.

[5] = read-out: Positive enhancement EC50 (μM) for 2 μM GABA-induced current, −60 mV
[6] = 2 μM GABA, −60 mV, read-out: Positive enhancement EC50 (μM) for 2 μM GABA-induced current

| Structure (SMILES) | Duration (KM mice; 60 mg/kg) | Latency (KM mice; 60 mg/kg) | Duration (KM mice; 100 mg/kg) | Latency (KM mice; 100 mg/kg) | Latency (SD rats [1]) | Duration of anesthesia (SD rats [2]) | Time from wake-up to recovery (SD rats [2]) | EC50 [3, 5] | Enhancement percentage Emax for 2 μM GABA current (within 3-30 μM) ([3]; −60 mV) | In vitro blood-brain barrier, compound permeability at 5 min (hCMEC/D3 cells) | half-life at 0.4 mg/mL [4] | Duration (KM mice; 30 mg/kg) | Latency (KM mice; 30 mg/kg) | Duration (SD rats [1]) | EC50 [3, 6] |
| --- | --- | --- | --- | --- | --- | --- | --- | --- | --- | --- | --- | --- | --- | --- | --- |
| COC(=O)CC[C@@H]1N=C(c2ccccc2Cl)c2cc(Br)ccc2-n2c(SCCO)nnc21 [Compound 33, methyl (S)-3-(8-bromo-6-(2-chlorophenyl)-1-((2-hydroxyethyl)thio)-4H-benzo[f][1,2,4]triazolo[4,3-a][1,4]diazepin-4-yl)propionate] | 6.41 min | 0.21 min | 12.38 min | 0.22 min | 0.52 min | 17.3 min | 20.2 min | 0.44 µM | 279% (20 μM) | 83.4% | 53.4 s | – | – | – | – |
| COC(=O)CC[C@@H]1N=C(c2ccccc2Cl)c2cc(Br)ccc2-n2c(SCCN)nnc21 [Compound 36, methyl (S)-3-(8-bromo-6-(2-chlorophenyl)-1-((2-aminoethyl)thio)-4H-benzo[f][1,2,4]triazolo[4,3-a][1,4]diazepin-4-yl)propionate] | 8.82 min | 0.34 min | – | – | 0.28 min | 9.37 min | 17.5 min | 0.58 µM | 227% (20 μM) | 71.6% | 34.2 s | – | – | – | – |
| COC(=O)CC[C@@H]1N=C(c2ccccc2)c2cc(Cl)ccc2-n2c(SC)nnc21 [Compound 102, methyl (S)-3-(8-chloro-1-(methylthio)-6-phenyl-4H-benzo[f][1,2,4]triazolo[4,3-a][1,4]diazepin-4-yl)propionate] | 7.47 min | 0.39 min | – | – | 0.37 min | 4.27 min | 25.5 min | 0.48 µM | 291% (20 μM) | 87.1% | 16.2 s | 17.24 min | 1.13 min | – | – |
| COC(=O)CC[C@@H]1N=C(c2ccccc2F)c2cc(Br)ccc2-n2c(S)nnc21 [Compound 4, methyl (S)-3-(8-bromo-6-(2-fluorophenyl)-1-mercapto-4H-benzo[f][1,2,4]triazolo[4,3-a][1,4]diazepin-4-yl)propionate] | – | – | – | – | 0.35 min | 5.21 min | 15.6 min | 0.69 µM | 252% (20 μM) | 68.6% | 104 s | 9.21 min | 0.88 min | – | – |
| COC(=O)CC[C@@H]1N=C(c2ccccc2Cl)c2cc(Cl)ccc2-n2c(SCCO)nnc21 [Compound 32, methyl (S)-3-(8-chloro-6-(2-chlorophenyl)-1-((2-hydroxyethyl)thio)-4H-benzo[f][1,2,4]triazolo[4,3-a][1,4]diazepin-4-yl)propionate] | – | – | – | – | – | – | – | – | – | – | 16.2 s | 20.73 min | 0.73 min | – | – |
| COC(=O)CC[C@@H]1N=C(c2ccccc2F)c2cc(Br)ccc2-n2c1n[nH]c2=S [Tautomer of compound 4, methyl (S)-3-(8-bromo-6-(2-fluorophenyl)-1-thio-2,4-dihydro-1H-benzo[f][1,2,4]triazolo[4,3-a][1,4]diazepin-4-yl) propionate] | – | – | – | – | 0.48 min | 4.84 min | 10.3 min | – | 238% (20 μM) | 75.8% | – | 2.95 min | 0.38 min | 15.4 min | 0.65 µM |
| COC(=O)CC[C@@H]1N=C(c2ccccc2Cl)c2cc(Br)ccc2-n2c(SC)nnc21 [Compound 24, methyl (S)-3-(8-bromo-6-(2-chlorophenyl)-1-(methylthio)-4H-benzo[f][1,2,4]triazolo[4,3-a][1,4]diazepin-4-yl)propionate] | 6.83 min | 0.24 min | – | – | 0.28 min | 15.6 min | 22.3 min | 0.48 µM | 282% (20 μM) | 73.4% | – | – | – | – | – |
| CCCSc1nnc2n1-c1ccc(Cl)cc1C(c1ccccc1Cl)=N[C@H]2CCC(=O)OC [Compound 29, methyl (S)-3-(8-chloro-6-(2-chlorophenyl)-1-(propylthio)-4H-benzo[f][1,2,4]triazolo[4,3-a][1,4]diazepin-4-yl)propionate] | – | – | – | – | 0.86 min | 9.18 min | 13.6 min | 0.74 µM | 251% (20 μM) | 77.6% | – | 9.25 min | 0.57 min | – | – |
| COC(=O)CC[C@@H]1N=C(c2ccccc2Cl)c2cc(Cl)ccc2-n2c(SCCN3CCCC3)nnc21 [Compound 119, methyl (S)-3-(8-chloro-6-(2-chlorophenyl)-1-(2-((pyrrolidin-1-yl)ethyl)thio)-4H-benzo[f][1,2,4]triazolo[4,3-a][1,4]diazepin-4-yl)propionate] | – | – | – | – | 0.43 min | 12.83 min | 32.7 min | – | 278% (20 μM) | 83.3% | – | 30.86 min | 0.46 min | 13.27 min | 0.43 µM |
| CCCSc1nnc2n1-c1ccc(Br)cc1C(c1ccccc1Cl)=N[C@H]2CCC(=O)OC [Compound 30, methyl (S)-3-(8-bromo-6-(2-chlorophenyl)-1-(propylthio)-4H-benzo[f][1,2,4]triazolo[4,3-a][1,4]diazepin-4-yl)propionate] | – | – | – | – | – | – | – | – | – | – | 27 s | 7.44 min | 0.42 min | – | – |
